The assay has as its system Erysiphe graminis forma specialis tritici. The experiment in a line: Activity against powdery mildew of wheat, protective spray test on wheat seedlings cv. Kanzler. Type of assay: in vivo, Erysiphe graminis forma specialis tritici (on wheat). The following applies: sprayed to runoff 24 h before inoculation, rated visually after 7 days, untreated plants 90% disease. Here is the method: The active ingredients, separately or jointly, were prepared as a 10% strength emulsion in a mixture of 70% by weight of cyclohexanone, 20% by weight of Nekanil® LN (Lutensol® AP6, wetter with emulsifying and dispersing action based on ethoxylated alkylphenols) and 10% by weight of Wettol® EM (nonionic emulsifier based on ethoxylated castor oil) and diluted with water to give the desired concentration.
Use Example 1—Activity Against Powdery Mildew of Wheat (Erysiphe graminis f. sp. […] f. sp. tritici)
Leaves of wheat seedlings cv. “Kanzler” which have grown in pots were sprayed to runoff point with aqueous preparation of active ingredient made with a stock solution composed of 10% of active ingredient, 63% of cyclohexanone and 27% of emulsifier, and, 24 hours after the spray coating had dried on, dusted with spores of powdery mildew of wheat (Erysiphe graminis forma specialis tritici). The test plants were subsequently placed in a greenhouse at temperatures between 20 and 24° C. and a relative atmospheric humidity of 60 to 90%. After 7 days, the extent of the mildew development was determined visually in % disease of the total leaf area.

`COc1cc(C)c(C(=O)c2c(Cl)ccc(Cl)c2C)c(OC)c1OC` [I.1-02, 2,5-Dichloro-2′,6-dimethyl-4′,5′,6′-trimethoxybenzophenone]: the “extent of mildew development, % disease of the total leaf area” value is listed as “no disease” (4 ppm) and “no disease” (16 ppm).
Take `COc1cc(C)c(C(=O)c2c(F)ccc(F)c2C)c(OC)c1OC` [I.5-02, 2,5-Difluoro-2′,6-dimethyl-4′,5′,6′-trimethoxybenzophenone]: the “extent of mildew development, % disease of the total leaf area” value is, setting by setting: (4 ppm) 1%; (16 ppm) “no disease”.

The values above are taken from patent US20040082815A1, “Benzophenones, the production thereof and their use for controlling plant pathogenic fungi” (priority 2001, published 2004).
